From patent US20100173943A1, “INSECTICIDAL COMPOSITIONS WITH IMPROVED ACTION” (BAYER CROPSCIENCE AG, priority 2007, published 2010)

How the values were obtained:
[1] = system: green peach aphid (Myzus persicae); assay: Myzus persicae test (MYZUPE); assay type: in vivo; details: pepper plants sprayed, 6 days; for pest or weed control at 4 ppm / pest or weed control at 20 ppm / pest or weed control at 0.8 ppm / pest or weed control at 100 ppm: Myzus persicae, 144 h, read-out: Kill in % after 6 days a.i.; for pest or weed control at 4 ppm: 4 ppm a.i. alone; for pest or weed control at 20 ppm: 20 ppm a.i. alone; for pest or weed control at 0.8 ppm: 0.8 ppm a.i. alone; for pest or weed control at 100 ppm: 100 ppm a.i. alone
Description: Myzus persicae Test (MYZUPE)
(§1) Solvent: 7 parts by weight of dimethylformamide
(§2) Emulsifier: 2 parts by weight of alkylaryl polyglycol ether
(§3) To prepare an appropriate active ingredient formulation, 1 part by weight of active ingredient is mixed with the given amounts of solvent and emulsifier, and the concentrate is diluted with emulsifier-containing water to the desired concentration. In the case that addition of ammonium salts, penetrants, or ammonium salts and penetrants is required, they are pippetted in each case into the finished preparation solution after dilution in a concentration of 1000 ppm each.
Pepper plants (Capsicum annuum) highly infested by the green peach aphid (Myzus persicaei) are treated by spraying with the active ingredient formulation in the desired concentration.
After the desired time, the kill rate in % is determined. 100% means that all animals have been killed; 0% means that no animals have been killed.

[2] = system: cotton aphid (Aphis gossypii); assay: Aphis gossypii test (APHIGO spray treatment); assay type: in vivo; details: cotton leaves sprayed, 6 days; for pest or weed control at 20 ppm: 20 ppm a.i. alone; for pest or weed control at 4 ppm: 4 ppm a.i. alone; for pest or weed control at 0.8 ppm: 0.8 ppm a.i. alone; for pest or weed control at 100 ppm: 100 ppm a.i. alone
Description: Aphis gossypii Test (APHIGO Spray Treatment)
as §1, §2
as §3, with “a ready-to-use” for “an appropriate”, “specified” for “given”, “emulsifier” for “emulsifier,”, “pipetted” for “pippetted”
Cotton leaves (Gossypium hirsutum) highly infested by the cotton aphid (Aphis gossypii) are sprayed with an active ingredient formulation with the desired concentration.
After the desired period, the kill rate in % is determined. 100% means that all aphids have been killed; 0% means that no aphids have been killed.

[3] = 4 ppm a.i. + AMS and RME 1000 ppm each
[4] = 4 ppm a.i. + ammonium sulphate 1000 ppm
[5] = 4 ppm a.i. + rapeseed oil methyl ester 1000 ppm
[6] = 20 ppm a.i. + AMS and RME 1000 ppm each
[7] = 20 ppm a.i. + ammonium sulphate 1000 ppm
[8] = 20 ppm a.i. + rapeseed oil methyl ester 1000 ppm
[9] = Aphis gossypii, 144 h, read-out: Kill in % after 6 days a.i.
[10] = 0.8 ppm a.i. + AMS and RME 1000 ppm each
[11] = 0.8 ppm a.i. + ammonium sulphate 1000 ppm
[12] = 0.8 ppm a.i. + rapeseed oil methyl ester 1000 ppm
[13] = 100 ppm a.i. + AMS and RME 1000 ppm each
[14] = 100 ppm a.i. + ammonium sulphate 1000 ppm
[15] = 100 ppm a.i. + rapeseed oil methyl ester 1000 ppm

In the case of `O=C1C=C(N(Cc2ccc(C(F)(F)F)nc2)C2CC2)CO1` [Compound I-24, 4-(cyclopropyl {[6-(trifluoromethyl)pyrid-3-yl]methyl}amino)furan-2(5H)-one], the “Kill in % after 6 days +AMS + RME” value [1, 3] is reported as 75%, the “Kill in % after 6 days +AMS” value [1, 4] is reported as 20% and the “Kill in % after 6 days +RME” value [1, 5] is reported as 85%. For the same molecule, the “Kill in % after 6 days +AMS + RME” value [1, 6] was 98%, the “Kill in % after 6 days +AMS” value [1, 7] was 90% and the “Kill in % after 6 days +RME” value [1, 8] was 95%. For the same molecule, the pest or weed control at 4 ppm [1] was 15%, the pest or weed control at 20 ppm [1] was 75% and the “Kill in % after 6 days +AMS + RME” value [2, 6] was 90%. The “Kill in % after 6 days +AMS” value [2, 7] was 85%, the “Kill in % after 6 days +RME” value [2, 8] was 85% and the pest or weed control at 20 ppm [2, 9] was 50%.

`CC1OC(=O)C=C1N(C)Cc1ccc(Cl)nc1` (stereo not shown) [Compound I-25, 4-{[(6-chloropyrid-3-yl)methyl](methyl)amino}-5-methylfuran-2(5H)-one] was tested, and the “Kill in % after 6 days +AMS + RME” value [1, 3] was 55%, the “Kill in % after 6 days +AMS” value [1, 4] was 50% and the “Kill in % after 6 days +RME” value [1, 5] was 80%. The pest or weed control at 4 ppm [1] was 0%, the “Kill in % after 6 days +AMS + RME” value [2, 3] was 100% and the “Kill in % after 6 days +AMS” value [2, 4] was 60%. For the same molecule, the “Kill in % after 6 days +RME” value [2, 5] was 75% and the pest or weed control at 4 ppm [2, 9] was 65%.

For `CN(Cc1ccc(Br)nc1)C1=CC(=O)OC1` [Compound I-26, 4-{[(6-bromopyrid-3-yl)methyl](methyl)amino}furan-2(5H)-one], the “Kill in % after 6 days +AMS + RME” value [1, 10] was 95%, the “Kill in % after 6 days +AMS” value [1, 11] was 55% and the “Kill in % after 6 days +RME” value [1, 12] was 100%. The pest or weed control at 0.8 ppm [1] was 65%, the “Kill in % after 6 days +AMS + RME” value [2, 10] was 98% and the “Kill in % after 6 days +AMS” value [2, 11] was 70%. For the same molecule, the “Kill in % after 6 days +RME” value [2, 12] was 98% and the pest or weed control at 0.8 ppm [2, 9] was 90%.

For `CN(Cc1ccc(Cl)nc1)C1=C(F)C(=O)OC1` [Compound I-28, 4-{[(6-chloropyrid-3-yl)methyl](methyl)amino}-3-fluorofuran-2(5H)-one], the “Kill in % after 6 days +AMS + RME” value [1, 3] was 95%, the “Kill in % after 6 days +AMS” value [1, 4] was 15% and the “Kill in % after 6 days +RME” value [1, 5] was 90%. The pest or weed control at 4 ppm [1] was 50%, the “Kill in % after 6 days +AMS + RME” value [2, 3] was 80% and the “Kill in % after 6 days +AMS” value [2, 4] was 60%. The “Kill in % after 6 days +RME” value [2, 5] was 75%, the “Kill in % after 6 days +AMS + RME” value [2, 6] was 95% and the “Kill in % after 6 days +AMS” value [2, 7] was 90%. The “Kill in % after 6 days +RME” value [2, 8] was 95%, the pest or weed control at 4 ppm [2, 9] was 50% and the pest or weed control at 20 ppm [2, 9] was 55%.

With `CON(Cc1ccc(Cl)nc1)C1=CC(=O)OC1` [Compound I-29, 4-{[(6-chloropyrid-3-yl)methyl](methoxy)amino}furan-2(5H)-one] the “Kill in % after 6 days +AMS + RME” value [1, 10] was 50%, the “Kill in % after 6 days +AMS” value [1, 11] was 0% and the “Kill in % after 6 days +RME” value [1, 12] was 30%. For the same molecule, the pest or weed control at 0.8 ppm [1] was 0%, the “Kill in % after 6 days +AMS + RME” value [2, 3] was 75% and the “Kill in % after 6 days +AMS” value [2, 4] was 65%. The “Kill in % after 6 days +RME” value [2, 5] was 50% and the pest or weed control at 4 ppm [2, 9] was 50%.

With `CCN(Cc1ccc(Cl)nc1)C1=CC(=O)OC1` [Compound I-30, 4-{[(6-chloropyrid-3-yl)methyl](ethyl)amino}furan-2(5H)-one] the “Kill in % after 6 days +AMS + RME” value [1, 10] was 45%, the “Kill in % after 6 days +AMS” value [1, 11] was 25% and the “Kill in % after 6 days +RME” value [1, 12] was 95%. The pest or weed control at 0.8 ppm [1] was 5%, the “Kill in % after 6 days +AMS + RME” value [2, 6] was 95% and the “Kill in % after 6 days +AMS” value [2, 7] was 100%. For the same molecule, the “Kill in % after 6 days +RME” value [2, 8] was 100% and the pest or weed control at 20 ppm [2, 9] was 80%.

With `O=C1C=C(N(Cc2ccc(Cl)nc2)C2CC2)CO1` [Compound I-31, 4-{[(6-chloropyrid-3-yl)methyl](cyclopropyl)amino}furan-2(5H)-one] the “Kill in % after 6 days +AMS + RME” value [1, 10] was 95%, the “Kill in % after 6 days +AMS” value [1, 11] was 80% and the “Kill in % after 6 days +RME” value [1, 12] was 100%. For the same molecule, the pest or weed control at 0.8 ppm [1] was 50%, the “Kill in % after 6 days +AMS + RME” value ([2]; 0.16 ppm a.i. + AMS and RME 1000 ppm each) was 60% and the “Kill in % after 6 days +AMS” value ([2]; 0.16 ppm a.i. + ammonium sulphate 1000 ppm) was 30%. For the same molecule, the “Kill in % after 6 days +RME” value ([2]; 0.16 ppm a.i. + rapeseed oil methyl ester 1000 ppm) was 15%, the “Kill in % after 6 days +AMS + RME” value [2, 10] was 80% and the “Kill in % after 6 days +AMS” value [2, 11] was 65%. For the same molecule, the “Kill in % after 6 days +RME” value [2, 12] was 80%, the pest or weed control at 0.16 ppm ([2]; Aphis gossypii, 144 h, 0.16 ppm a.i. alone, read-out: Kill in % after 6 days a.i.) was 0% and the pest or weed control at 0.8 ppm [2, 9] was 50%.

For `C=CCN(Cc1ccc(Cl)nc1)C1=CC(=O)OC1` [Compound I-32, 4-{allyl[(6-chloropyrid-3-yl)methyl]amino}furan-2(5H)-one], the “Kill in % after 6 days +AMS + RME” value [1, 3] was 80%, the “Kill in % after 6 days +AMS” value [1, 4] was 60% and the “Kill in % after 6 days +RME” value [1, 5] was 70%. The “Kill in % after 6 days +AMS + RME” value [1, 6] was 100%, the “Kill in % after 6 days +AMS” value [1, 7] was 100% and the “Kill in % after 6 days +RME” value [1, 8] was 98%. The pest or weed control at 4 ppm [1] was 0%, the pest or weed control at 20 ppm [1] was 15% and the “Kill in % after 6 days +AMS + RME” value [2, 6] was 100%. The “Kill in % after 6 days +AMS” value [2, 7] was 100%, the “Kill in % after 6 days +RME” value [2, 8] was 100% and the pest or weed control at 20 ppm [2, 9] was 0%.

For `C#CCN(Cc1ccc(Cl)nc1)C1=CC(=O)OC1` [Compound I-33, 4-{[(6-chloropyrid-3-yl)methyl](prop-2-yn-1-yl)amino}furan-2(5H)-one], the “Kill in % after 6 days +AMS + RME” value [1, 13] was 95%, the “Kill in % after 6 days +AMS” value [1, 14] was 45% and the “Kill in % after 6 days +RME” value [1, 15] was 95%. The pest or weed control at 100 ppm [1] was 40%, the “Kill in % after 6 days +AMS + RME” value [2, 3] was 15% and the “Kill in % after 6 days +AMS” value [2, 4] was 25%. The “Kill in % after 6 days +RME” value [2, 5] was 65% and the pest or weed control at 4 ppm [2, 9] was 30%.

In the case of `CCCN(Cc1ccc(Cl)nc1)C1=CC(=O)CCC1` [Compound I-34, 3-{[(6-chloropyrid-3-yl)methyl](propyl)amino}cyclohex-2-en-1-one], the “Kill in % after 6 days +AMS + RME” value [1, 13] is reported as 85%, the “Kill in % after 6 days +AMS” value [1, 14] is reported as 50% and the “Kill in % after 6 days +RME” value [1, 15] is reported as 85%. For the same molecule, the pest or weed control at 100 ppm [1] was 40%, the “Kill in % after 6 days +AMS + RME” value [2, 13] was 45% and the “Kill in % after 6 days +AMS” value [2, 14] was 20%. The “Kill in % after 6 days +RME” value [2, 15] was 40% and the pest or weed control at 100 ppm [2, 9] was 15%.

`C#CCN(Cc1ccc(Cl)nc1)C1=CC(=O)CCC1` [Compound I-36, 3-{[(6-chloropyrid-3-yl)methyl](prop-2-yn-1-yl)amino}cyclohex-2-en-1-one] was tested, and the “Kill in % after 6 days +AMS + RME” value [1, 6] was 85%, the “Kill in % after 6 days +AMS” value [1, 7] was 25% and the “Kill in % after 6 days +RME” value [1, 8] was 85%. For the same molecule, the pest or weed control at 20 ppm [1] was 40%, the “Kill in % after 6 days +AMS + RME” value [2, 6] was 65% and the “Kill in % after 6 days +AMS” value [2, 7] was 15%. The “Kill in % after 6 days +RME” value [2, 8] was 45%, the “Kill in % after 6 days +AMS + RME” value [2, 13] was 99% and the “Kill in % after 6 days +AMS” value [2, 14] was 98%. The “Kill in % after 6 days +RME” value [2, 15] was 80%, the pest or weed control at 20 ppm [2, 9] was 30% and the pest or weed control at 100 ppm [2, 9] was 55%.

`O=C1C=C(NCc2ccc(Cl)nc2)CCC1` [Compound I-37, 3-{[(6-chloropyrid-3-yl)methyl]amino}cyclohex-2-en-1-one] was tested, and the “Kill in % after 6 days +AMS + RME” value [1, 6] was 95%, the “Kill in % after 6 days +AMS” value [1, 7] was 35% and the “Kill in % after 6 days +RME” value [1, 8] was 90%. The pest or weed control at 20 ppm [1] was 20%, the “Kill in % after 6 days +AMS + RME” value [2, 6] was 65% and the “Kill in % after 6 days +AMS” value [2, 7] was 45%. For the same molecule, the “Kill in % after 6 days +RME” value [2, 8] was 40% and the pest or weed control at 20 ppm [2, 9] was 55%.

In the case of `CN(Cc1ccc(Cl)nc1)C1=CC(=O)CCC1` [Compound I-38, 3-{[(6-chloropyrid-3-yl)methyl](methyl)amino}cyclohex-2-en-1-one], the “Kill in % after 6 days +AMS + RME” value [1, 3] is reported as 70%, the “Kill in % after 6 days +AMS” value [1, 4] is reported as 5% and the “Kill in % after 6 days +RME” value [1, 5] is reported as 65%. The pest or weed control at 4 ppm [1] was 5%, the “Kill in % after 6 days +AMS + RME” value [2, 13] was 55% and the “Kill in % after 6 days +AMS” value [2, 14] was 90%. The “Kill in % after 6 days +RME” value [2, 15] was 70% and the pest or weed control at 100 ppm [2, 9] was 45%.
